# Patent US11197859B2 (AUTIFONY THERAPEUTICS LIMITED, priority 2010, dated 2021)
# How the values were obtained:
# [1] = molecular target: T1, human Kv3.2 channels (hKv3.2) (Homo sapiens, UniProt Q96PR1); assay: IonWorks Quattro electrophysiology, hKv3.2 currents, activation time constant (Tauact); assay type: cell-based; settings: hKv3.2, -15 mV pulse
# T1 construct: expressed in transfected cells
# T1 sequence (Q96PR1 1-638): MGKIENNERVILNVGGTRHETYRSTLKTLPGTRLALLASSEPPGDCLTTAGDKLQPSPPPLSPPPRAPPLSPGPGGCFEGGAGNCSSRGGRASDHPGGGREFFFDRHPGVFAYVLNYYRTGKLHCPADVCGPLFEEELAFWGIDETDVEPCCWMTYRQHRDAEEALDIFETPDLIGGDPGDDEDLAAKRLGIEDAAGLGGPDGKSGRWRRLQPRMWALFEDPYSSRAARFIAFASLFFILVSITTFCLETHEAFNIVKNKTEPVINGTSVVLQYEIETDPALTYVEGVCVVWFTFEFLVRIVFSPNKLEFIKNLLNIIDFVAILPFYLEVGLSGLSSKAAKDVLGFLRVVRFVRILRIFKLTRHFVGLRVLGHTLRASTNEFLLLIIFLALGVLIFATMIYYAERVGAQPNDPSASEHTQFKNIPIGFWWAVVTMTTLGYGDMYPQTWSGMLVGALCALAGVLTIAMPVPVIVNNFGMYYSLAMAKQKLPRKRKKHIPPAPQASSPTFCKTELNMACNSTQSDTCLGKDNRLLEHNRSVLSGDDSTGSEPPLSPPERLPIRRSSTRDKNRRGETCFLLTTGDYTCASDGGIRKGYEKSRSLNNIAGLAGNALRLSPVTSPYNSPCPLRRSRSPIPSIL
# Description: The ability of the compounds of the disclosure to modulate the voltage-gated potassium channel subtypes Kv3.2/3.1 may be determined using the following assay.
# To assess compound effects on human Kv3.2 channels (hKv3.2), a stable cell line expressing hKv3.2 was created by transfecting Chinese Hamster Ovary (CHO)-K1 cells with a pCIH5-hKv3.2 vector. Cells were cultured in DMEM/F12 medium supplemented by 10% Foetal Bovine Serum, 1× non-essential amino acids (Invitrogen) and 500 ug/ml of Hygromycin-B (Invitrogen). Cells were grown and maintained at 37° C. in a humidified environment containing 5% CO2 in air.
# The day of the experiment, cells were removed from the incubator and the culture medium removed. Cells were washed with 5 ml of Dulbecco's PBS (DPBS) calcium and magnesium free and detached by the addition of 3 ml Versene (Invitrogen, Italy) followed by a brief incubation at 37° C. for 5 minutes. The flask was tapped to dislodge cells and 10 ml of DPBS containing calcium and magnesium was added to prepare a cell suspension. The cell suspension was then placed into a 15 ml centrifuge tube and centrifuged for 2 min at 1200 rpm. After centrifugation, the supernatant was removed and the cell pellet re-suspended in 4 ml of DPBS containing calcium and magnesium using a 5 ml pipette to break up the pellet. Cell suspension volume was then corrected to give a cell concentration for the assay of approximately 3 million cells per ml.
# Experiments were conducted at room temperature using IonWorks Quattro™ planar array electrophysiology technology (Molecular Devices Corp.) with PatchPlate™ PPC. Stimulation protocols and data acquisition were carried out using a microcomputer (Dell Pentium 4). Planar electrode hole resistances(Rp) were determined by applying a 10 mV voltage step across each well. These measurements were performed before cell addition. […] Following this, amphotericin-B solution was added to the intracellular face of the electrode to achieve intracellular access. Cells were held at −70 mV. Leak subtraction was conducted in all experiments by applying 50 ms hyperpolarizing (10 mV) prepulses to evoke leak currents followed by a 20 ms period at the holding potential before test pulses. From the holding potential of −70 mV, a first test pulse to −15 mV was applied for 100 ms and following a further 100 ms at −70 mV, a second pulse to 40 mV was applied for 50 ms. Cells were then maintained for a further 100 ms at −100 mV and then a voltage ramp from −100 mV to 40 mV was applied over 200 ms. In all experiments, the test pulses protocol was performed in the absence (pre-read) and presence (post-read) of the test compound. Pre- and post-reads were separated by the compound addition followed by a 3 minute incubation.
# The intracellular solution contained the following (in mM): K-gluconate 100, KCl 54, MgCl2 3.2, HEPES 5, adjusted to pH 7.3 with KOH. Amphotericin-B solution was prepared as 50 mg/ml stock solution in DMSO and diluted to a final working concentration of 0.1 mg/ml in intracellular solution.
# The final assay dilution was 200 and the final compound concentrations were in the range 50 μM to 50 nM.
# The recordings were analysed and filtered using both seal resistance (>20 MΩ) and peak current amplitude (>500 pA at the voltage step of 40 mV) in the absence of compound to eliminate unsuitable cells from further analysis. Kv3 channel-mediated outward currents were measured determined from the mean amplitude of the current over the final 10 ms of the −15 mV voltage pulse minus the mean baseline current at −70 mV over a 10 ms period just prior to the −15 mV step. This Kv3 channel currents following addition of the test compound were then compared with the currents recorded prior to compound addition. […] The normalised data were analysed using ActivityBase or Excel software.
# [2] = system: common marmosets (Callithrix jacchus); assay: Pharmaco-electroencephalography (phEEG) in the common marmoset; assay type: in vivo
# Description: Laboratory bred male (vasectomised) and female common marmosets (Callithrix jacchus) over 2 years of age, weighing 250-500 g were used in this study. The animals were caged in couples, in a housing room maintained at 25±1° C., 60% humidity and a 12 hour light/dark cycle (lights on at 0600, with 30 min simulated dawn and twilight). Animals received a standard diet and drinking water ad libitum. Only one animal of each pair was involved in the test, which was carried out with the animal situated in the home cage.
# The effect of compounds of the disclosure was assessed using telemetric recording of cortical EEG (ECoG). A multichannel telemetric transmitter (DSI model TL11M2-F40-EET) is implanted intraperitoneally using standard surgical techniques in anaesthetised marmosets. Recording electrodes were permanently fixed, with dental cement, to the skull directly in contact with the dura mater through two drilled holes in the fronto-parietal region. Following surgery, animals were housed in pairs (one implanted, one unoperated partner) in their home cage with access to food and water ad libitum. […] All in vivo studies were conducted in accordance with the Italian laws and conformed to GlaxoSmithkline ethical standards.
# The animals were placed in the nest-boxes in their room cages and EEG traces were recorded using Dataquest ART software for a 5-min period for each time-point and analyzed using Spike2 software (CED, UK). The spectral power in each frequency band was determined for each 2 sec epoch during the pre-treatment period and averaged; similarly spectral power in each band was determined for successive 2 sec epochs of each 5-min period of recording following vehicle or drug treatment. Change in the absolute spectral power, for each of the different bands (delta, theta, alpha and beta) was calculated offline.
# Drug treatments were assigned according to a complete crossover design: All treatments were randomly distributed between animals, in separate experimental sessions, each animal received vehicle and each dose of drug, after an appropriate wash-out period.
# Six animals were treated orally with Reference Example RE2 at the doses of 0.3, 1 and 3 mg/kg (1 ml/kg) and the EEG traces were recorded at +15, 30, 60, 90, 120 and 180 minutes following treatment. Reference Example RE2 was suspended in 12.5% (w/v) aqueous captisol containing 0.1% (w/v) Tween80 and 0.5% (w/v) HPMC.
# Four different frequency bands were considered: delta (1.50-6.00 Hz), theta (6.00-8.00 Hz), alpha (8.00-12.00 Hz) and beta (12.00-30.00 Hz). Values for spectral power in each band at each time point were first log transformed and then analysed with a mixed effect model with time as fixed effect, the baseline level as covariate, and animal as random term. Data are summarised as mean of the percentage changes from baseline and standard error.
# [3] = compound 3.1 μM (concentration giving ~0.3 nA current)
# [4] = compound 0.4 μM (concentration giving ~0.3 nA current)
# [5] = compound 1.6 μM (concentration giving ~0.3 nA current)
# [6] = compound 0.8 μM (concentration giving ~0.3 nA current)
structure (smiles),measurement,setting,value
CCc1cc(Oc2ccc(N3C(=O)N[C@H](CC)C3=O)cn2)ccc1C#N,Tauact mean,[1]; [3],8.2 ms
"CC1COc2cccc(Oc3ccc(N4C(=O)NC(C)(C)C4=O)cn3)c2C1 (single isomer, unassigned) [Example 25, 5,5-dimethyl-3-{6-[(3-methyl-3,4-dihydro-2H-chromen-5-yl)oxy]-3-pyridinyl}-2,4-imidazolidinedione]",Tauact mean,[1]; compound 6.25 μM (concentration giving ~0.3 nA current),7.87 ms
"CC1(C)NC(=O)N(c2ccc(Oc3cccc4c3C3(CC3)CO4)nc2)C1=O [Example 16, 5,5-dimethyl-3-[6-(spiro[1-benzofuran-3,1′-cyclopropan]-4-yloxy)-3-pyridinyl]-2,4-imidazolidinedione]",Tauact mean,[1]; [4],19.3 ms
"CC[C@@]1(C)NC(=O)N(c2cnc(Oc3ccc(C)c4c3C3(CC3)CO4)nc2)C1=O [Example 51, (5R)-5-ethyl-5-methyl-3-[2-(7-methylspiro[2H-benzofuran-3,1′-cyclopropane]-4-yl)oxypyrimidin-5-yl]imidazolidine-2,4-dione]",Tauact mean,[1]; [5],21.3 ms
"CC[C@H]1NC(=O)N(c2cnc(Oc3ccc(C)c4c3C3(CC3)CO4)nc2)C1=O [Example 61, (5R)-5-ethyl-3-[2-(7-methylspiro[2H-benzofuran-3,1′-cyclopropane]-4-yl)oxypyrimidin-5-yl]imidazolidine-2,4-dione]",Tauact mean,[1]; [6],31.5 ms
"CC[C@H]1NC(=O)N(c2ccc(Oc3ccc(C)c4c3C3(CC3)CO4)nc2)C1=O [Example 62, (5R)-5-ethyl-3-[6-(7-methylspiro[2H-benzofuran-3,1′-cyclopropane]-4-yl)oxy-3-pyridyl]imidazolidine-2,4-dione]",Tauact mean,[1]; [4],34.8 ms
"CC[C@H]1NC(=O)N(c2ccc(Oc3ccc(C)c4c3C(C)(C)CO4)nc2)C1=O [Example 63, (5R)-5-ethyl-3-{6-[(3,3,7-trimethyl-2,3-dihydro-1-benzofuran-4-yl)oxy]-3-pyridinyl}-2,4-imidazolidinedione]",Tauact mean,[1]; [4],28.0 ms
"CC[C@H]1NC(=O)N(c2cnc(Oc3ccc(C)c4c3C(C)(C)CO4)nc2)C1=O [Example 64, (5R)-5-ethyl-3-{2-[(3,3,7-trimethyl-2,3-dihydro-1-benzofuran-4-yl)oxy]-5-pyrimidinyl}-2,4-imidazolidinedione]",Tauact mean,[1]; [5],25.0 ms
"CC[C@@]1(C)NC(=O)N(c2ccc(Oc3ccc(C)c4c3C3(CC3)CO4)nc2)C1=O [Example 65, (5R)-5-ethyl-5-methyl-3-[6-(7-methylspiro[2H-benzofuran-3,1′-cyclopropane]-4-yl)oxy-3-pyridyl]imidazolidine-2,4-dione]",Tauact mean,[1]; [6],24.0 ms
"CC[C@@]1(C)NC(=O)N(c2ccc(Oc3ccc(C)c(OC)c3)nc2)C1=O [RE2, (5R)-5-ethyl-5-methyl-3-(6-{[4-methyl-3-(methyloxy)phenyl]oxy}-3-pyridinyl)-2,4-imidazolidinedione]",Tauact mean,[1]; compound 12.5 μM (concentration giving ~0.3 nA current),7.3 ms
same,absolute EEG power in the beta band,"[2]; 1 mg/kg oral, at 30 minutes (concomitant), vs vehicle, p<0.05",significant reduction
same,absolute EEG power in delta band,"[2]; 1 mg/kg oral, at 30 minutes, vs vehicle, p<0.10",marginally significant (p<0.10) increase
same,EEG theta band power,"[2]; 3 mg/kg oral, at 60 minutes, vs vehicle, p<0.05",statistically significant increase
same,absolute EEG power in the delta band,"[2]; 3 mg/kg oral, between 30 and 120 minutes, vs vehicle, p<0.05",statistically significant increase
same,EEG power in the alpha band,"[2]; any dose (0.3, 1, 3 mg/kg oral)",No significant effects
"CC[C@H]1NC(=O)N(c2ccc(Oc3ccc(C#N)cc3C(C)(C)C)nc2)C1=O [RE3, 3-(1,1-dimethylethyl)-4-({5-[(4R)-4-ethyl-2,5-dioxo-1-imidazolidinyl]-2-pyridinyl}oxy)benzonitrile]",Tauact mean,[1]; compound 0.2 μM (concentration giving ~0.3 nA current),23.0 ms
"CC[C@H]1NC(=O)N(c2ccc(Oc3ccc(C#N)c(C(C)C)c3)nc2)C1=O [RE4, 4-({5-[(4R)-4-ethyl-2,5-dioxo-1-imidazolidinyl]-2-pyridinyl}oxy)-2-(1-methylethyl)benzonitrile]",Tauact mean,[1]; [6],9.2 ms
"CC[C@H]1NC(=O)N(c2ccc(Oc3ccc(C#N)cc3C3CC3)nc2)C1=O [RE5, 3-cyclopropyl-4-({5-[(4R)-4-ethyl-2,5-dioxo-1-imidazolidinyl]-2-pyridinyl}oxy)benzonitrile]",Tauact mean,[1]; [3],13.0 ms
"CC[C@H]1NC(=O)N(c2ccc(Oc3ccc(C#N)c(OC(F)(F)F)c3)nc2)C1=O [RE7, 4-({5-[(4R)-4-ethyl-2,5-dioxo-1-imidazolidinyl]-2-pyridinyl}oxy)-2-[(trifluoromethyl)oxy]benzonitrile]",Tauact mean,[1]; [3],10.4 ms
"CC[C@H]1NC(=O)N(c2ccc(Oc3ccc(C#N)c(OC(C)C)c3)nc2)C1=O [RE8, 4-({5-[(4R)-4-ethyl-2,5-dioxo-1-imidazolidinyl]-2-pyridinyl}oxy)-2-[(1-methylethyl)oxy]benzonitrile]",Tauact mean,[1]; [3],9.7 ms
